Measured values from US20250099609A1 (priority 2023, published 2025).

Columns and labels:
stem cells [1] = test: Stem cell conversion to fat cells after radiation; format: cell-based; settings: after exposure to radiation (IR 21d)
Experimental: All treatment was administered with radiation (IR 21d).
Radiation exposure, post-menopausal osteoporosis, and diabetes are conditions that cause stem cells to favor conversion to fat cells instead of conversion to bone cells. This process progresses to tissue dysfunction. Stem cells were treated with P7C3 or with cerium oxide nanoparticles (CNPs) after exposure to radiation. […] All treatment was administered with radiation (IR 21d).

[2] = tested on: post-menopausal osteoporosis; test: Post-menopausal osteoporosis in animals; format: in vivo
From the text: The above embodiments also relate to the field of medicine for an article of manufacture delivering a prophylactic and therapeutic tissue strategy for osteoporosis. The remarkable increase in average life expectancy during the 20th century ranks as one of society's greatest achievements. As a result, the world's elderly population (aged ≥65 years) continues to grow at an unprecedented rate. As the proportion of the oldest-old (aged >85 years) and length of life expectancy increases, a rise in age-related degenerating diseases, disability, and prolonged dependency is projected. Age-related bone loss and osteoporosis is inevitable in both men and women, and can lead to fragility fractures, immobility, and disability. Currently, bisphosphonate treatment and weight-bearing exercise are commonly used therapeutic approaches, but both with limited long-term success.

stem cells [3] = test: Bone mineral formation / new bone deposition after radiation (Alizarin red); format: cell-based; settings: 14 days of culture; treatment 24 h or 48 h after radiation (7 Gy)
Experimental: Radiation reduces the ability of bone cells to produce bone. […] This is further confirmed when the cells are cultured over a longer period of 28 days.
The data showing assessed bone formation was supported by quantification of new bone deposition.
(**** p<0.000) The synergistic effect continues when treatment is administered more than 24 hours after radiation exposure.

[4] = tested on: primary and metastatic cancer cell; test: Primary and metastatic cancer cell growth; format: cell-based; settings: at therapeutic levels
From the text: This invention combines these two unique approaches as a bi-modal and multifunctional chimeric nanostrategy to combat against ionizing radiation-induced damage.

bone = settings: literature refs 15 and 19; cited from earlier work
osteoclasts = test: Osteoclast maturation (DAPI/Phalloidin staining); format: cell-based; settings: without radiation
Experimental: This treatment was carried out without exposing the osteoclasts to radiation.

mesenchymal stem cells = test: Alkaline phosphatase (ALP) assay after radiation; format: cell-based; settings: treatment 24 h or 48 h after ionizing radiation
From the text: FIGS. 6A-B show results of an alkaline phosphatase (ALP) assay. The micrographs show assessed bone formation after treatment with P7C3, with cerium oxide nanoparticles (CNPs), or with a combination of P7C3 and CNPs.

[5] = in vivo; cited from earlier work

## OC(CNc1ccccc1)Cn1c2ccc(Br)cc2c2cc(Br)ccc21 (centres unmarked) [P7C3, aminopropyl carbazole]
Stem cells [1]
  fat formation from stem cells: inhibit fat formation
[2]
  progression of post-menopausal osteoporosis: reduces the progression
Stem cells [3]
  new bone deposition (micrographs): does not substantially increase new bone deposition
[4]
  primary and metastatic cancer cell growth: significantly reduces
bone
  countermeasure against ionizing radiation-induced bone damage and/or bone loss: effective countermeasure
osteoclasts
  maturation of osteoclasts: stops the maturation of osteoclasts
Mesenchymal stem cells
  alkaline phosphatase expression / conversion of stem cells to osteoblasts: limited upregulation
[5]
  oral bioavailability: high oral bioavailability
